Assay results as given in PMC7026418, “The kinase polypharmacology landscape of clinical PARP inhibitors” (Scientific Reports, 2020).
Where two headings read alike, the source gives them in different places.

Experiments:
Test in all cases: biochemical
Design in all cases: DiscoveRx KINOMEscan active site-directed competition binding; percent of control kinase bound to immobilised ligand
BMPR2 = target: T1, BMPR2 (Homo sapiens, UniProt Q13873)
T1 sequence (Q13873 1-1038): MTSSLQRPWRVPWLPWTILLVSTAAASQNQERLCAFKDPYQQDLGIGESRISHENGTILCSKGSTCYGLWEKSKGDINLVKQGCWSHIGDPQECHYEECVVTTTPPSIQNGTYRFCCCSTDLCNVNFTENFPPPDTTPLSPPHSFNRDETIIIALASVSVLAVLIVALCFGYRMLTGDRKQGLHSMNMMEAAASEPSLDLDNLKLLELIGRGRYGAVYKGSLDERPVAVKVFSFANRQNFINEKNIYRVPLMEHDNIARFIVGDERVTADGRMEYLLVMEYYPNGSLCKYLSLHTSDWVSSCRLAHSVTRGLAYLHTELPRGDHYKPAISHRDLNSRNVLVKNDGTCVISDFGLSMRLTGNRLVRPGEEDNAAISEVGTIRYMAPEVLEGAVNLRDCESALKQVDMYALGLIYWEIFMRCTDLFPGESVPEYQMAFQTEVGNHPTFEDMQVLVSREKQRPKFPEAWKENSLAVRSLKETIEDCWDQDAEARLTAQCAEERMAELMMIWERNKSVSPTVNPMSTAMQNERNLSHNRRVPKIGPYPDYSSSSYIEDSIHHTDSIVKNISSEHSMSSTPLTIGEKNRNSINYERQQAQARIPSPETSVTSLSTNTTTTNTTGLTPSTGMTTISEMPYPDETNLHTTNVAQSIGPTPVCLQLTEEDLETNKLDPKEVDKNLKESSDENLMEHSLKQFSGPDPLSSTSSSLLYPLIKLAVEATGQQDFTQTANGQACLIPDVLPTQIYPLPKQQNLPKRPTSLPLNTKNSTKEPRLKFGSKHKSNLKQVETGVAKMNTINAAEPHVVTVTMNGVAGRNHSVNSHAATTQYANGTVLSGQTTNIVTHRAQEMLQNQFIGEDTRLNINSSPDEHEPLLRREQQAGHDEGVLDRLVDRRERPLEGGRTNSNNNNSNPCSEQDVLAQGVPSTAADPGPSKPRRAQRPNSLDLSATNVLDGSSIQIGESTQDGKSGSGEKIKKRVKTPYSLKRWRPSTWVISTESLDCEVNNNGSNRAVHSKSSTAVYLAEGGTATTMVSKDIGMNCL

BUB1 = BUB1 (Homo sapiens, UniProt O43683)
CSNK1G2 = CSNK1G2 (Homo sapiens, UniProt P78368)
FLT1 = FLT1 (Homo sapiens, UniProt P17948)
IRAK3 = target: T2, IRAK3 (Homo sapiens, UniProt Q9Y616)
T2 sequence (Q9Y616 1-596): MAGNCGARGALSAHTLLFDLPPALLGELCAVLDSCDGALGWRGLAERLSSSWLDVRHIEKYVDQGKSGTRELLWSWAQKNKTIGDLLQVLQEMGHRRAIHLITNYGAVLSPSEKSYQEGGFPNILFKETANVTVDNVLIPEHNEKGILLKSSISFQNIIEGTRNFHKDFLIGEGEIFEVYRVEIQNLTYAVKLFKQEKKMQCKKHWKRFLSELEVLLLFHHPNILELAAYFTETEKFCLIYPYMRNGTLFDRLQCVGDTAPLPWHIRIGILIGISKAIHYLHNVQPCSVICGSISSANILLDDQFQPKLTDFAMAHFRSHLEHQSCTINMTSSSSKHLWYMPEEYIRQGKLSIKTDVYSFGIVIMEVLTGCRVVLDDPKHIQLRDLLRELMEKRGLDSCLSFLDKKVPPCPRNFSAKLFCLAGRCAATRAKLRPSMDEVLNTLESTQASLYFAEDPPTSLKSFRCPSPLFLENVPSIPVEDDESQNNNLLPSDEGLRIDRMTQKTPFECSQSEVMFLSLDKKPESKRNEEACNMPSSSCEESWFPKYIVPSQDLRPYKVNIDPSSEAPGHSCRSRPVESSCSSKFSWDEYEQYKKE

MEK1 = target: T3, MEK1 (Homo sapiens, UniProt Q02750)
T3 construct: gene MAP2K1

MEK5 = target: T4, MEK5 (Homo sapiens, UniProt Q13163)
T4 construct: gene MAP2K5
T4 sequence (Q13163 1-448): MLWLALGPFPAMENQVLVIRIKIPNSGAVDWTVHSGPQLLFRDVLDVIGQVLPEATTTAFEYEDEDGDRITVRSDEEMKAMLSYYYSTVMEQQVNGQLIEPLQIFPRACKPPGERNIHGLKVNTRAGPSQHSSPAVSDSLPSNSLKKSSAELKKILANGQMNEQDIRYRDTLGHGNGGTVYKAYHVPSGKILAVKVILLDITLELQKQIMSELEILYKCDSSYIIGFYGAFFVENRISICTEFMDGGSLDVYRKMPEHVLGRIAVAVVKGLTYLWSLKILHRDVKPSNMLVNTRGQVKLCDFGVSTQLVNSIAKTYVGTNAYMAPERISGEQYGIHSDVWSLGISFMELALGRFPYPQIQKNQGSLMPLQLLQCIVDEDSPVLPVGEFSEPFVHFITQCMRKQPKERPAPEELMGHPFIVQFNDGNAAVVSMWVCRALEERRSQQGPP

PIK3CA(M1043I) = PIK3CA(M1043I) (Homo sapiens, UniProt P42336, M1043I)
[1] = read-out: Talazoparib (BMN 673) / %Ctrl @ 10000nM
[2] = read-out: Olaparib / %Ctrl @ 10000nM
[3] = read-out: Rucaparib / %Ctrl @ 10000nM, binding competition, % of control
[4] = read-out: Niraparib (MK-4827) / %Ctrl @ 10000nM

PIK3CA(M1043I), sequence (P42336 whole entry M1043I): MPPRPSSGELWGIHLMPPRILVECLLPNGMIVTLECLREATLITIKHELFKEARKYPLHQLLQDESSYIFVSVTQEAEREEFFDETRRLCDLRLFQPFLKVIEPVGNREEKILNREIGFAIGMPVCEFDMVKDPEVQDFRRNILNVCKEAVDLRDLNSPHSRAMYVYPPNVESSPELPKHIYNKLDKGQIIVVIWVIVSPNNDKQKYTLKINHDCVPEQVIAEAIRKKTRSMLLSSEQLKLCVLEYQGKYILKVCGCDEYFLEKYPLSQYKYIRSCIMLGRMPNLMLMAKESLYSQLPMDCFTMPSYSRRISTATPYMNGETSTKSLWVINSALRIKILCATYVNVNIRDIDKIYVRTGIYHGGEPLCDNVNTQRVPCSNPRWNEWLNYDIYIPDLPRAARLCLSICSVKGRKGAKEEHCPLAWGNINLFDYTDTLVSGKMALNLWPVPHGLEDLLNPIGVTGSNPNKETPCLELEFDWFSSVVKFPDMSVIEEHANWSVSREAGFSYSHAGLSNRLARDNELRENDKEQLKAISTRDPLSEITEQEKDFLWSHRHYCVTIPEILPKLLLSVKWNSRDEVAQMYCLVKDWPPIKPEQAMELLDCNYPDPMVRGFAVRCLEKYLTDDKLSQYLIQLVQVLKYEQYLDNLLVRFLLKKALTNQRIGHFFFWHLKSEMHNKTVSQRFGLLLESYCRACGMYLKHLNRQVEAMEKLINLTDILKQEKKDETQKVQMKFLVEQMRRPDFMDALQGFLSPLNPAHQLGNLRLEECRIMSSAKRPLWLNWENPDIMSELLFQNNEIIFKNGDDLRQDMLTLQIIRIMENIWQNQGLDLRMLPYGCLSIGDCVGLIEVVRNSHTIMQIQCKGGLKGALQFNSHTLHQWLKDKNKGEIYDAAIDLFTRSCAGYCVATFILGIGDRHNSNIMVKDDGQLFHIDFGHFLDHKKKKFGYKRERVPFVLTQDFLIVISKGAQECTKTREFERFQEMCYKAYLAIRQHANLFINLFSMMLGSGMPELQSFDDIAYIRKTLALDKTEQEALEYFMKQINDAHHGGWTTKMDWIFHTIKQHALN
BUB1, sequence (O43683 whole entry): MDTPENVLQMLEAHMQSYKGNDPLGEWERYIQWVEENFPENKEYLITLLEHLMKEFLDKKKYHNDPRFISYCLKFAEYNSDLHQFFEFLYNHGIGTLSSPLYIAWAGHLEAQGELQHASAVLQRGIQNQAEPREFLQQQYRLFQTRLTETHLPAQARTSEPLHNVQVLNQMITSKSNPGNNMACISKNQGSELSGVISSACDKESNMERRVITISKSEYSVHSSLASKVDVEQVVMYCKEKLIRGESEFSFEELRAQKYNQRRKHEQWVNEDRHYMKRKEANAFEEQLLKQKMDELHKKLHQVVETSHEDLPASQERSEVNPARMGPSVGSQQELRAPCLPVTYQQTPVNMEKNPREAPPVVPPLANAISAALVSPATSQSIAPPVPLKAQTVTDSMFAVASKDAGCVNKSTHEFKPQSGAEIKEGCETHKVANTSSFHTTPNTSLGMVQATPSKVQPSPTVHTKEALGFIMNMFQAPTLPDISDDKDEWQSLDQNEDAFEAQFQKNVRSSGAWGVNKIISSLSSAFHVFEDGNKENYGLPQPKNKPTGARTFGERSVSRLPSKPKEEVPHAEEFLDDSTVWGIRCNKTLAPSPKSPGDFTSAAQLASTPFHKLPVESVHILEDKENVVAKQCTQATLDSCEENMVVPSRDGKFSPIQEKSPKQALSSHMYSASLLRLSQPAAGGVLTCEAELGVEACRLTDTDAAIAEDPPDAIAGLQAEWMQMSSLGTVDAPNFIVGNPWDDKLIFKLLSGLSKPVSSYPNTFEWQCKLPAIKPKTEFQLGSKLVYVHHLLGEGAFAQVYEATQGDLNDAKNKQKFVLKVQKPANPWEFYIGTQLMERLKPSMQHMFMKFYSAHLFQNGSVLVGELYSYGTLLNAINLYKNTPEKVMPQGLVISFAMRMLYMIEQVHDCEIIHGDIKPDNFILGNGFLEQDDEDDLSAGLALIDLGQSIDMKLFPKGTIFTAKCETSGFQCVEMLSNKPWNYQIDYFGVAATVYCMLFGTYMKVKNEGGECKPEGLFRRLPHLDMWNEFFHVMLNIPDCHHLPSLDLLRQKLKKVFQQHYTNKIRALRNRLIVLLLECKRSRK
CSNK1G2, sequence (P78368 whole entry): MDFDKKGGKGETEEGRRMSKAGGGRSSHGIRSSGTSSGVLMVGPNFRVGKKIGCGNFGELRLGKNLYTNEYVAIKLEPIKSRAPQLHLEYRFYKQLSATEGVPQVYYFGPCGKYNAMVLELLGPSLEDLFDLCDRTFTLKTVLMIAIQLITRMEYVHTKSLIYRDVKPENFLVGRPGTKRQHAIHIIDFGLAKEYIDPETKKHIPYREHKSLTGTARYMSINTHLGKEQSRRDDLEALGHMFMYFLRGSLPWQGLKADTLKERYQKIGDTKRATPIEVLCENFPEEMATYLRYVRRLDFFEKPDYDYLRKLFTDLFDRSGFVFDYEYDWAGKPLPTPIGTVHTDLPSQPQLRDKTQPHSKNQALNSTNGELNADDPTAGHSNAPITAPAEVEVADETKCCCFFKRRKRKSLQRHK
T3 sequence (Q02750 whole entry): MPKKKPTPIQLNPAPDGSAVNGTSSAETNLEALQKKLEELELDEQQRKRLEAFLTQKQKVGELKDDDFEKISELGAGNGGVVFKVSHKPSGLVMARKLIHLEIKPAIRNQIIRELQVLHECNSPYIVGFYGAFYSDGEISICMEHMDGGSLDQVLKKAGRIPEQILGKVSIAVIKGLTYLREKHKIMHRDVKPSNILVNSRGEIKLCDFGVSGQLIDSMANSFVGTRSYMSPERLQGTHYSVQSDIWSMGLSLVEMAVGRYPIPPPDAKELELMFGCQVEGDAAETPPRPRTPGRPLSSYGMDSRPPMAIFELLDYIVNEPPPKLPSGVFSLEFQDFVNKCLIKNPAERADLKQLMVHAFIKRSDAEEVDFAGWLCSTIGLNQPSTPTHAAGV
FLT1, sequence (P17948 whole entry): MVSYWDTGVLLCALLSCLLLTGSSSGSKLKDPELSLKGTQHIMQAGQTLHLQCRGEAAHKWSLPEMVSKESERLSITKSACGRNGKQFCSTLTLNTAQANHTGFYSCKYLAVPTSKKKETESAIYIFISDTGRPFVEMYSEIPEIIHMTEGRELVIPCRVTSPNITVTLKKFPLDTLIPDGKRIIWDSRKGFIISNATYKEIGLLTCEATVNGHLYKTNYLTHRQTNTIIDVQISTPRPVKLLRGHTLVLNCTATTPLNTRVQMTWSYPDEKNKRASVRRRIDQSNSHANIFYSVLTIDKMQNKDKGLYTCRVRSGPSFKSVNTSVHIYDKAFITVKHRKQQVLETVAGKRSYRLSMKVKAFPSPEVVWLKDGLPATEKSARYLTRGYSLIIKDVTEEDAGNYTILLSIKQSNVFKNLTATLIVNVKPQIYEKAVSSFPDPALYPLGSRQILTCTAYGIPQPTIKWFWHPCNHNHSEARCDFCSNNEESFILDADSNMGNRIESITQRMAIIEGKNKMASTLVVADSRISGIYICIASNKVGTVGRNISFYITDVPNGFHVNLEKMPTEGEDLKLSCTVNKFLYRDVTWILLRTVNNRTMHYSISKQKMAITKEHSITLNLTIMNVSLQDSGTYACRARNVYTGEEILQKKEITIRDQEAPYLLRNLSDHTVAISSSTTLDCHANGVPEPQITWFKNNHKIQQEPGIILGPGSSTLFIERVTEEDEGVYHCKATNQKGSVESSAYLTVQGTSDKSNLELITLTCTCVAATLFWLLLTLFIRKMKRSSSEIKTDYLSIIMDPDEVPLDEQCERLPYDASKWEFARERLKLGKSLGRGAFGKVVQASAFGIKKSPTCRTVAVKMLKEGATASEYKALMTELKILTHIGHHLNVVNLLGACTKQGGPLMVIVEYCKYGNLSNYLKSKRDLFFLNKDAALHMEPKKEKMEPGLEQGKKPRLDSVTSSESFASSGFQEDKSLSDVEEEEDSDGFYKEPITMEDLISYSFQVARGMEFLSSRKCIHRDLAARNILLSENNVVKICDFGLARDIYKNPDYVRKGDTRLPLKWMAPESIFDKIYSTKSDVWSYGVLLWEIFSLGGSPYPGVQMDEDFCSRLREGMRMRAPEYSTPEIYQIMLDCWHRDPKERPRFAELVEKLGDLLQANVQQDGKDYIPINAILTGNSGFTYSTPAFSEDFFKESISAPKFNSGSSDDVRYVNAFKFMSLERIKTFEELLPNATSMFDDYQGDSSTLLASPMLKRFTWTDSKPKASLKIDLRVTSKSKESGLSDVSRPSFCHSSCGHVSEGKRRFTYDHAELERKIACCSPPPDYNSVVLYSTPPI

Question: For `Cn1ncnc1[C@H]1c2n[nH]c(=O)c3cc(F)cc(c23)N[C@@H]1c1ccc(F)cc1` [Talazoparib], which percent of control binding at 10 µM (BMPR2; [1]) is on record?
Answer: 100%

Question: And the percent of control binding at 10 µM (BUB1; [1])?
Answer: 100%

Question: And the percent of control binding at 10 µM (CSNK1G2; [1])?
Answer: 91%

Question: And the percent of control binding at 10 µM (FLT1; [1])?
Answer: 100%

Question: And the percent of control binding at 10 µM (IRAK3; [1])?
Answer: 100%

Question: What about the percent of control binding at 10 µM (MEK1; [1]) of the same compound?
Answer: 67%

Question: And the percent of control binding at 10 µM (MEK5; [1])?
Answer: 51%

Question: And the percent of control binding at 10 µM (PIK3CA(M1043I); [1])?
Answer: 94%

Question: For `O=C(c1cc(Cc2n[nH]c(=O)c3ccccc23)ccc1F)N1CCN(C(=O)C2CC2)CC1` [Olaparib], which percent of control binding at 10 µM (BMPR2; [2]) is on record?
Answer: 80%

Question: And the percent of control binding at 10 µM (BUB1; [2])?
Answer: 83%

Question: What about the percent of control binding at 10 µM (CSNK1G2; [2]) of the same compound?
Answer: 81%

Question: And the percent of control binding at 10 µM (FLT1; [2])?
Answer: 99%

Question: And the percent of control binding at 10 µM (IRAK3; [2])?
Answer: 82%

Question: What about the percent of control binding at 10 µM (MEK1; [2]) of the same compound?
Answer: 79%

Question: What about the percent of control binding at 10 µM (MEK5; [2]) of the same compound?
Answer: 77%

Question: And the percent of control binding at 10 µM (PIK3CA(M1043I); [2])?
Answer: 91%

Question: What does the source list for `CNCc1ccc(-c2[nH]c3cc(F)cc4c3c2CCNC4=O)cc1` [Rucaparib]?
Answer: percent of control binding at 10 µM (BMPR2; [3]): 83%; percent of control binding at 10 µM (BUB1; [3]): 48%; percent of control binding at 10 µM (CSNK1G2; [3]): 89%; percent of control binding at 10 µM (FLT1; [3]): 93%; percent of control binding at 10 µM (IRAK3; [3]): 86%; percent of control binding at 10 µM (MEK1; [3]): 69%; percent of control binding at 10 µM (MEK5; [3]): 70%; percent of control binding at 10 µM (PIK3CA(M1043I); [3]): 77%

Question: How did the percent of control binding at 10 µM (BMPR2; [4]) turn out when `NC(=O)c1cccc2cn(-c3ccc([C@@H]4CCCNC4)cc3)nc12` [Niraparib] was run?
Answer: 96%

Question: What about the percent of control binding at 10 µM (BUB1; [4]) of the same compound?
Answer: 97%

Question: What about the percent of control binding at 10 µM (CSNK1G2; [4]) of the same compound?
Answer: 79%

Question: And the percent of control binding at 10 µM (FLT1; [4])?
Answer: 100%

Question: What about the percent of control binding at 10 µM (IRAK3; [4]) of the same compound?
Answer: 90%

Question: What about the percent of control binding at 10 µM (MEK1; [4]) of the same compound?
Answer: 79%

Question: What about the percent of control binding at 10 µM (MEK5; [4]) of the same compound?
Answer: 66%

Question: And the percent of control binding at 10 µM (PIK3CA(M1043I); [4])?
Answer: 90%
